Data from US11040052B2, “Methods and pharmaceutical compositions for modulating autophagy in a subject in need thereof” (INSERM (INSTITUT NATIONAL DE LA SANTE ET DE LA RECHERCHE …, priority 2013, dated 2021).
Entries after “also recorded” stand apart in the source; their conditions may differ.

Columns and labels:
MCA205 tumor = test: Growth of transplantable tumors with chemotherapy; format: in vivo, mice; conditions: for tumor growth, combined with MTX: immunocompetent wild type mice, agent given before and with mitoxanthrone; for tumor growth, combined with MTX, immunodeficient mice: nu/nu (nude athymic) mice; for tumor growth, combined with oxaliplatin: data not shown
Protocol: C57BL/6 mice (Charles River Laboratory, Lentilly, France) were bred and maintained according to both the FELASA and the Animal Experimental Ethics Committee Guidelines (Val de Marne, France). Mice were housed in a temperature-controlled environment with 12 h light/dark cycles and received food and water ad libitum. For HC-related experiments, mice were injected intraperitoneally with a single 100 mg/kg dose and 6 h later were sacrificed and tissues were immediately frozen in liquid nitrogen. For DCA- and DMKG-related experiments, mice were subjected to 24 h starvation and injected intraperitoneally each 8 h with a 100 mg/kg of either DCA or DMKG solution prepared in PBS. After 24 h of starvation, mice were sacrificed and tissues were immediately frozen in liquid nitrogen after extraction and homogenized two cycles for 20 s at 5,500 rpm using Precellys 24 tissue homogenator (Bertin Technologies, Montigny-le-Bretonneux, France) in a 20 mM Tris buffer (pH 7.4) containing 150 mM NaCl, 1% Triton X-100, 10 mM EDTA and Complete® protease inhibitor cocktail (Roche Applied Science). Tissue extracts were then centrifuged at 12,000 g at 4° C. and supernatants were collected. Protein concentration in the supernatants was evaluated by the bicinchoninic acid technique (BCA protein assay kit, Pierce Biotechnology, Rockford, Ill.). For hydroxycitrate-related weight-loss experiments, autophagy-deficient Atg4b^−/− mice were used. Atg4b^−/− mice have been previously described (Mariño et al., 2010). For HC-, spermidine-, and resveratrol-related experiments (tumour growth) mice were intraperitoneally injected with respectively 100 mg/kg, 50 mg/kg and 100 mg/kg doses at day 8 and day 9. At day 9, mice were intraperitoneally injected with 2 mg/kg single dose of Mitoxanthrone. For starvation related experiment (tumour growth) mice were treated as previously described (Fabrizio et. al., 2010).
Six weeks old female C57BL/6, Balb/c and nude athymic mice (Harlan Laboratory, Gannat, France) were bred and maintained according to both the FELASA and the Animal Experimental Inserm Ethics Committee Guidelines (project: 2012-69). Mice were housed in a temperature-controlled environment with 12 h light/dark cycles and received food and water ad libitum. For tumor growth experiments, procedures adopted are described as follows: 3×10^5 tumor cells were subcutaneously inoculated; when tumors became palpable (day −1 before chemotherapy), mice were first intraperitoneally injected with 100 mg/kg Potassium Hydroxycitrate, 10 mg/kg Acetylsalicylic Acid, 30 mg/kg SB204990, 30 mg/kg c646, 5 mg/kg Rapamycin, 25 mg/kg Resveratrol, 50 mg/kg Spermidine. At day 0, mice were intraperitoneally injected with the abovementioned compounds and with 5.17 mg/Kg Mitoxanthrone or 5 mg/kg Oxaliplatin. Tumor size was measured every two days. For starvation experiments, mice underwent 48 hour fasting followed by intreperitoneal injection of chemotherapeutics. For autophagy induction study, 6 hours after CRMs administration, mice were sacrificed and tissues were snap-frozen in liquid nitrogen after extraction and homogenized two cycles for 20 s at 5,500 rpm using Precellys 24 tissue homogenator (Bertin Technologies, Montigny-le-Bretonneux, France) in a 20 mM Tris buffer (pH 7.4) containing 150 mM NaCl, 1% Triton X-100, 10 mM EDTA and Complete® protease inhibitor cocktail (Roche Applied Science, Penzberg, Germany). Tissue extracts were then centrifuged at 12,000 g at 4° C. and supernatants were collected. Protein concentration in the supernatants was evaluated by the bicinchoninic acid technique (BCA protein assay kit, Pierce Biotechnology, Rockford, US.

[1] = system: MPA/DMBA induced mammary tumors; test: MPA/DMBA induced mammary tumor; format: in vivo, mice
Protocol: Six-week-old female Balb/c mice underwent surgical implantation of slow-release MPA (Medroxyprogesterone Acetate) pellets (50 mg, 90-day release; Innovative Research of America) subcutaneously on the right flank. 200 uL of 5 mg/mL DMBA (Dimethylbenzantracene)
(Sigma Aldrich) dissolved in Corn Oil was administered by oral gavage six times during 8 weeks. Tumor formation was monitored by palpation. When tumors became palpable, mice were assigned to following groups of treatment: PBS, HCA, MTX, MTX plus HCA and the MTX plus HCA upon CD4/CD8 lymphocytes depletion. Combinatorial groups were treated as previously described, whereas for CD4/CD8 depletion, mice were intraperitoneally administrated with 500 μg of anti CD4 and CD8 antibodies the day before the onset of the treatment.

Row | SMILES | tumor growth, combined with MTX (MCA205 tumor) | tumor growth, combined with MTX (MCA205 tumor; listed as C646) | tumor growth, combined with MTX, immunodeficient mice (MCA205 tumor) | tumor growth, combined with MTX, autophagy-deficient tumors (MCA205 tumor; MCA205 cells with Atg5 or Atg7 shRNA) | tumor growth, combined with oxaliplatin (MCA205 tumor) | tumor growth, combined with oxaliplatin (MCA205 tumor; listed as hydroxycitrate) | tumor growth, combined with MTX (MCA205 tumor; listed as hydroxycitrate) | tumor growth, combined with MTX, CD39-expressing tumors (MCA205 tumor; tumors engineered to express the ecto-ATPase CD39, data not shown) | survival, combined with MTX ([1]; Kaplan-Meier) | mammary tumor growth and survival, combined with MTX, T cell depleted ([1]; depletion of CD4 and CD8 T lymphocytes) | mammary tumor growth, combined with MTX ([1]; mice capable of T-cell dependent immune response) | mammary tumor growth, monotherapy ([1]; mouse, in vivo)
1 | CC1=NN(c2ccc(C(=O)O)cc2)C(=O)/C1=C\c1ccc(-c2cc(C)c(C)cc2[N+](=O)[O-])o1 [c646] | can enhance chemotherapy efficacy | HC could be replaced | failed | – | – | – | – | – | – | – | – | –
2 | O=C(O)CC(O)(C(=O)O)C(O)C(=O)O (centres unmarked) [HC, hydroxycitrate] | mimics the effects of 48 h fasting in delaying subcutaneous MCA205 tumor growth; also recorded: improves the efficacy of chemotherapy and significantly reduces tumor growth of MCA205 cells in wild type; also recorded: similarly improved tumor growth reduction by MTX; also recorded: more efficient than monotherapy with MTX | – | not in immunodeficient nu/nu mice | tumor growth control is lost; also recorded: largely therapy-resistant | caused superior tumor growth reduction, but only in WT, not in nu/nu mice | improved the therapeutic outcome of treatments with MTX (FIG. 8G) or oxaliplatin | enhanced the tumor growth-inhibitory effect of chemotherapy as efficiently as did starvation; also recorded: improved the therapeutic outcome of treatments with MTX | lost its therapeutic efficacy | significantly increased survival | Beneficial effect of combinatorial treatment is lost | significantly diminish tumor growth; also recorded: unless they were combined | had little effect
